Measured values: US20260317312A1, “ISOXAZOLIDINES AS RIPK1 INHIBITORS AND USE THEREOF” (GENZYME CORPORATION, priority 2023, published 2026)

How the values were obtained:
[1] = test system: U937 cells; test: Cellular assay in U937 cells to measure activity of RIPK1-inhibitors on cell death (necroptosis); type: cell-based; settings: overnight (18 to 24 hrs), 37° C., MTS readout
Description: Upon TNF-Receptor I ligation, Ser/Thr kinase RIPK1 is recruited to a transient receptor complex I. Upon modification of RIPK1 which promotes activation of RIPK1, complex lib can form, that involves recruitment of RIPK3 and MLKL (mixed lineage-kinase domain-like protein) which then translocates from the cytosol to the plasma membrane to execute cell death (Cai, Z. et al, Nat. Cell Biol. (2014)16:55-65).
Cell death was quantified in 96 well plates by determination of the amount of live cell using a CellTiter 96 Aqueous reagent (Promega), a calorimetric method to measure the number of live cells by reducing tetrazolium compound [3-(4,5-dimethylthiazol-2-yl)-5-(3-carboxymethoxyphenyl)-2-(4-sulfophenyl)-2H-tetrazolium, inner salt; MTS] into formazan. Absorbance of formazan was read at 490 nm. The inhibitory activity of the test compound was quantified in a concentration response curve (CRC) experiment.
Compounds were obtained as 10 mM stock solutions and were diluted 1 to 10 volumes with DMSO to yield a 1 mM solution. From this solution 2 μl were diluted with 998 μl growth medium. 100 μl of 2 μM compound solution was further diluted sequentially with a dilution factor of 2.5 by adding 150 μl growth medium. A total of 10 concentrations were tested ranging from 10 μM to 0.26 nM or from 1 μM to 0.07 nM.
U937 cells were cultured in RPM11640 Glutamax and 10% heat inactivated FBS. 50 μl cell suspension containing 1×10^6 cells/ml supplemented with 50 μM zVAD.fmk (Benzyloxycarbonyl-Val-Ala-Asp (Ome) fluoromethylketone) and 100 ng/ml recombinant human TNFα were dispensed in each well of a 96-well plate. 50 μl of compound dilutions (described in Cellular assay in U937 cells) were added and the cell suspension incubated overnight (18 to 24 hrs) at 37° C., 5% CO2 in a humidified atmosphere (95% rH). High (no compound) and low control (no TNFα, zVAD.fmk) were tested with 7 replicates; all compound concentrations were tested in duplicates on each experimental plate.
CellTiter 96 Aqueous reagent was mixed (100 μl PMS (phenazine methosulfate) solution/2 ml MTS (3-(4,5-[…])-5-(3-carboxymethoxyphenyl)-2-(4-sulfophenyl)-2H-tetrazolium, inner salt) solution) and 20 μl were added per well. After 4 hrs incubation at 37° C. (5% CO2 95% rH) optical density was measured at 490 nm on a microplate reader (Tecan Infinite M1000).
The % inhibition is expressed as percentage of the maximal inhibition value obtained in the absence of TNFα/zVAD.fmc.

[2] = biological target: T1, hRIPK1 (aa 1-375) fusion protein (Homo sapiens, UniProt Q13546); test: Receptor-Interacting Protein Kinase 1 inhibition, ADP Glo assay (conversion of ATP to ADP due to autophosphorylation); type: biochemical; settings: ATP 50 μM, 30 min preincubation, 240 min incubation, room temperature, DMSO 1%
T1 construct: hRIPK1 (aa 1-375) fusion protein
T1 sequence (Q13546 1-375): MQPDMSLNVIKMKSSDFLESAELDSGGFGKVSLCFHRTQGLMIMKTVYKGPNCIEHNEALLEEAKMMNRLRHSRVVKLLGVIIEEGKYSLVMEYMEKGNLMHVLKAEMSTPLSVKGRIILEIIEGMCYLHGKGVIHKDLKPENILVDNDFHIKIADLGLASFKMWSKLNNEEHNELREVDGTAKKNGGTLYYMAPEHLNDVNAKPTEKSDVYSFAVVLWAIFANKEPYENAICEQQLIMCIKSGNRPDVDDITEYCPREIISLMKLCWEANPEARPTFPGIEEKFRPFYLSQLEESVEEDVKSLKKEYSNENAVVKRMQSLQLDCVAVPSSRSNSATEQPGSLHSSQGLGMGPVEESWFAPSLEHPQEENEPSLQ
Method: The catalytic activity of RIPK1 was measured by monitoring the conversion of Adenosine triphosphate (ATP) to Adenosine diphosphate (ADP) due to autophosphorylation using an ADP-Glo kinase kit (Promega, catalog no. V9104).
In detail, 2 μl recombinantly produced hRIPK1 (aa 1-375) fusion protein (end concentration 3.6 μg/ml) and 2 μl compound (end concentration 33300-1.69 nM; DMSO end concentration 1%) were incubated for 30 minutes at room temperature and then 2 μl ATP (ADP Glo kit, end concentration 50 μM) were added. After another 240 minutes incubation at room temperature, 5 μl Promega ADP-Glo reagent I was added to quench the reaction and deplete unconsumed ATP. After an incubation period of 30 minutes, 10 μl Promega ADP-Glo detection reagent II was added resulting in conversion of ADP to ATP, which generates a light-reaction between luciferase and luciferin. Luminescence was quantified after 30 minutes with a Pherastar FS (BMG LABTECH, Ortenberg).
The adjustment was obtained by nonlinear regression using the Levenberg Marquardt algorithm.

[3] = Homo sapiens, U-937, TNFα/zVAD.fmk induced cell death (necroptosis)

SMILES	IC50 [2]	IC50 [1, 3]	IC50 ([1]; TNFα/zVAD.fmk induced cell death (necroptosis))
C[C@]1(C(=O)N2OCC[C@H]2c2cc(F)cc(F)c2)C[C@@H](Nc2c(Cl)ncnc2C(N)=O)C1 [Compound 10, cis-6-chloro-5-((3-((S)-3-(3,5-difluorophenyl)isoxazolidine-2-carbonyl)-3-methylcyclobutyl)amino)pyrimidine-4-carboxamide]	62 nM	364 nM	
C[C@]1(C(=O)N2OCC[C@H]2c2cc(F)cc(F)c2)C[C@@H](Nc2ncnc(C(N)=O)c2F)C1 [Compound 11, cis-6-((3-((S)-3-(3,5-difluorophenyl)isoxazolidine-2-carbonyl)-3-methylcyclobutyl)amino)-5-fluoropyrimidine-4-carboxamide]	62 nM	440 nM	
NC(=O)c1cc(N[C@H]2CC[C@@H](C(=O)N3OCC[C@H]3c3ccc(Cl)cc3)CC2)ncn1 [Compound 13, cis-6-((4-((S)-3-(4-chlorophenyl)isoxazolidine-2-carbonyl)cyclohexyl)amino)pyrimidine-4-carboxamide]	114 nM	462 nM	
N#Cc1cc(N[C@H]2C[C@@H](C(=O)N3OCC[C@H]3c3cccc(F)c3)C2)ncn1 [Compound 17, cis-6-((3-((S)-3-(3-fluorophenyl)isoxazolidine-2-carbonyl)cyclobutyl)amino)pyrimidine-4-carbonitrile]	56 nM	194 nM	
N#Cc1cc(F)cc([C@@H]2CCON2C(=O)[C@H]2C[C@@H](Nc3nccc(C#N)n3)C2)c1 [Compound 19, cis-2-((3-((S)-3-(3-cyano-5-fluorophenyl)isoxazolidine-2-carbonyl)cyclobutyl)amino)pyrimidine-4-carbonitrile]	66 nM	757 nM	
N#Cc1cc(F)cc([C@@H]2CCON2C(=O)[C@H]2C[C@@H](Nc3cc(C#N)ncn3)C2)c1 [Compound 20, cis-6-((3-((S)-3-(3-cyano-5-fluorophenyl)isoxazolidine-2-carbonyl)cyclobutyl)amino)pyrimidine-4-carbonitrile]	69 nM	809 nM	
N#Cc1cc(F)cc(N[C@H]2C[C@@H](C(=O)N3OCC[C@H]3c3ccc(Cl)cc3)C2)c1 [Compound 25, cis-3-((3-((S)-3-(4-chlorophenyl)isoxazolidine-2-carbonyl)cyclobutyl)amino)-5-fluorobenzonitrile]	64 nM	420 nM	
N#Cc1cc(F)cc([C@@H]2CCON2C(=O)[C@H]2CC[C@H](CNc3cc(C(N)=O)ncn3)CC2)c1 [Compound 29, trans-6-(((4-((S)-3-(3-cyano-5-fluorophenyl)isoxazolidine-2-carbonyl)cyclohexyl)methyl)amino)pyrimidine-4-carboxamide]	86 nM	561 nM	
N#Cc1cc(F)cc([C@@H]2CCON2C(=O)[C@H]2CC[C@H](CNc3cc(C#N)ncn3)CC2)c1 [Compound 30, trans-6-(((4-((S)-3-(3-cyano-5-fluorophenyl)isoxazolidine-2-carbonyl)cyclohexyl)methyl)amino)pyrimidine-4-carbonitrile]	59 nM	264 nM	
Cn1ccc2c(NC[C@H]3CC[C@H](C(=O)N4OCC[C@H]4c4cc(F)cc(C#N)c4)CC3)ncnc21 [Compound 31, trans-3-fluoro-5-((S)-2-(4-(((7-methyl-7H-pyrrolo[2,3-d]pyrimidin-4-yl)amino)methyl)cyclohexane-1-carbonyl)isoxazolidin-3-yl)benzonitrile]	110 nM	373 nM	

The next compounds have a lower IC50 [2] than those just listed; values first:

IC50 [2]	SMILES	IC50 [1, 3]	IC50 ([1]; TNFα/zVAD.fmk induced cell death (necroptosis))
35 nM	NC(=O)c1ccnc(N[C@H]2CC[C@@H](C(=O)N3OCC[C@H]3c3ccc(Cl)cc3)CC2)n1 [Compound 12, cis-2-((4-((S)-3-(4-chlorophenyl)isoxazolidine-2-carbonyl)cyclohexyl)amino)pyrimidine-4-carboxamide]	560 nM	
33 nM	N#Cc1ccnc(NC[C@H]2CC[C@H](C(=O)N3OCC[C@H]3c3ccc(Cl)cc3)CC2)n1 [Compound 14, trans-2-(((4-((S)-3-(4-chlorophenyl)isoxazolidine-2-carbonyl)cyclohexyl)methyl)amino)pyrimidine-4-carbonitrile]	503 nM	
9 nM	N#Cc1cc(NC[C@H]2CC[C@H](C(=O)N3OCC[C@H]3c3ccc(Cl)cc3)CC2)ncn1 [Compound 15, trans-6-(((4-((S)-3-(4-chlorophenyl)isoxazolidine-2-carbonyl)cyclohexyl)methyl)amino)pyrimidine-4-carbonitrile]	192 nM	
24 nM	N#Cc1ccnc(N[C@H]2C[C@@H](C(=O)N3OCC[C@H]3c3cccc(F)c3)C2)n1 [Compound 16, cis-2-((3-((S)-3-(3-fluorophenyl)isoxazolidine-2-carbonyl)cyclobutyl)amino)pyrimidine-4-carbonitrile]	123 nM	
41 nM	N#Cc1cc(N[C@H]2C[C@@H](C(=O)N3OCC[C@H]3c3cc(F)cc(F)c3)C2)ncn1 [Compound 18, cis-6-((3-((S)-3-(3,5-difluorophenyl)isoxazolidine-2-carbonyl)cyclobutyl)amino)pyrimidine-4-carbonitrile]	162 nM	
29 nM	N#Cc1ccnc(N[C@H]2C[C@@H](C(=O)N3OCC[C@H]3c3ccc(F)c(F)c3)C2)n1 [Compound 21, cis-2-((3-((S)-3-(3,4-difluorophenyl)isoxazolidine-2-carbonyl)cyclobutyl)amino)pyrimidine-4-carbonitrile]	212 nM	
40 nM	N#Cc1cc(N[C@H]2C[C@@H](C(=O)N3OCC[C@H]3c3ccc(F)c(F)c3)C2)ncn1 [Compound 22, cis-6-((3-((S)-3-(3,4-difluorophenyl)isoxazolidine-2-carbonyl)cyclobutyl)amino)pyrimidine-4-carbonitrile]	313 nM	
44 nM	N#Cc1cc(N[C@H]2C[C@@H](C(=O)N3OCC[C@H]3c3ccc(Cl)cc3)C2)ncn1 [Compound 23, cis-6-((3-((S)-3-(4-chlorophenyl)isoxazolidine-2-carbonyl)cyclobutyl)amino)pyrimidine-4-carbonitrile]	234 nM	
13 nM	N#Cc1ccnc(N[C@H]2C[C@@H](C(=O)N3OCC[C@H]3c3ccc(Cl)cc3)C2)n1 [Compound 24, cis-2-((3-((S)-3-(4-chlorophenyl)isoxazolidine-2-carbonyl)cyclobutyl)amino)pyrimidine-4-carbonitrile]		264 nM
52 nM	N#Cc1cc(F)cc(N[C@H]2C[C@@H](C(=O)N3OCC[C@H]3c3cccc(F)c3)C2)c1 [Compound 26, cis-3-fluoro-5-((3-((S)-3-(3-fluorophenyl)isoxazolidine-2-carbonyl)cyclobutyl)amino)benzonitrile]	152 nM	
49 nM	N#Cc1cc(F)cc(N[C@H]2C[C@@H](C(=O)N3OCC[C@H]3c3ccc(F)c(F)c3)C2)c1 [Compound 27, cis-3-((3-((S)-3-(3,4-difluorophenyl)isoxazolidine-2-carbonyl)cyclobutyl)amino)-5-fluorobenzonitrile]	170 nM	
